Activity calls are given as the source filed them. How the calls were made is not given here. *1 amine or outer side, *2 acyl side, *3 side chain or, on linkers, in order; H or OH if unused. Where a SMILES comes first, the peptide text is derived from it. Bridges are numbered along the chain shown (N, C = ends). Roman numbers before positions name the chains, in order. [ ]: non-standard residue; d: D form. Actinocin(9to1) = Cc1c2oc3c(C)ccc(C(=O)[*:1])c3nc-2c(C(=O)[*:2])c(N)c1=O; NMeV = CN[C@H](C(=O)O)C(C)C; Sar = CNCC(=O)O
test system: ADSC/ECFC co-culture, VEGF-stimulated, CD31 tube area; assay: inhibition of endothelial tube formation, dose response, imaging, VEGF stimulation, CD31 staining, tube area, IC50 (AID 1117337)

Which IC50 does the source give for `Cc1cc2nc3ccc(=[N+](C)C)cc-3sc2cc1N` here?
The IC50 was 2.45 µM.

For `CN1CCC[C@@H]1CCO[C@](C)(c1ccccc1)c1ccc(Cl)cc1`, which IC50 is on record?
Its IC50 is > 10 µM (inactive).

With `CCOC(=O)[C@H](CCc1ccccc1)N[C@@H](C)C(=O)N1C(=O)N(C)C[C@H]1C(=O)O` as the compound, how does the IC50 read?
Its IC50 is > 10 µM (inactive).

With `CCCCC(CC)COC(=O)CC(C(=O)OCC(CC)CCCC)S(=O)(=O)O` (centres undefined) as the compound, how does the IC50 read?
The IC50 was > 10 µM (inactive).

With `Nc1cc(C(F)(F)F)ccc1S` as the compound, how does the IC50 read?
The IC50 was > 10 µM (inactive).

For `CN1CCN(CCCN2c3ccccc3Sc3ccc(C(F)(F)F)cc32)CC1`, which IC50 is on record?
Its IC50 is > 10 µM (inactive).

How did the IC50 turn out when `Cc1cc(C(C#N)c2ccc(Cl)cc2)c(Cl)cc1NC(=O)c1cc(I)cc(I)c1O` (centres undefined) was run?
The IC50 was > 10 µM (inactive).

`O=C(OCc1ccccc1)c1cccnc1` was tested. Which IC50 did it give?
The IC50 was > 10 µM (inactive).

How did the IC50 turn out when `Cc1c(N)cccc1C(F)(F)F` was run?
The IC50 was > 10 µM (inactive).

How did the IC50 turn out when `COc1ccc2cc1Oc1ccc(cc1)C[C@H]1c3c(cc4c(c3Oc3cc5c(cc3OC)CCN(C)[C@@H]5C2)OCO4)CCN1C` was run?
Its IC50 is 3.02 µM.

How did the IC50 turn out when `O=c1[nH]c(=O)n([C@H]2C[C@H](O)[C@@H](CO)O2)cc1F` was run?
The IC50 was 0.0216 µM.

How did the IC50 turn out when `CCOc1ccc2nc3cc(N)ccc3c(N)c2c1` was run?
Its IC50 is 4.94 µM.

For `CC(=O)O[C@@]12CO[C@@H]1C[C@H](O)[C@@]1(C)C(=O)[C@H](O)C3=C(C)[C@@H](OC(=O)[C@H](O)[C@@H](NC(=O)OC(C)(C)C)c4ccccc4)C[C@@](O)([C@@H](OC(=O)c4ccccc4)[C@H]21)C3(C)C`, which IC50 is on record?
Its IC50 is 0.001 µM.

Which IC50 does the source give for `C/C(=N\O)[C@@H](C)NCC(C)(C)CN[C@H](C)/C(C)=N/O` here?
Its IC50 is > 10 µM (inactive).

Which IC50 does the source give for `CC1(C)[C@H](C=C(Cl)Cl)[C@@H]1C(=O)OCc1c(F)c(F)cc(F)c1F` here?
Its IC50 is > 10 µM (inactive).

For `COC(=O)CCCCC(CCSS/C(CCO)=C(\C)N(C=O)Cc1cnc(C)nc1N)SC(C)=O` (centres undefined), which IC50 is on record?
Its IC50 is > 10 µM (inactive).

`NC1=NCC2c3ccccc3Cc3ccccc3N12` (centres undefined) was tested. Which IC50 did it give?
Its IC50 is > 10 µM (inactive).

How did the IC50 turn out when `O=[N+]([O-])c1cc(I)c(O)c(I)c1` was run?
The IC50 was > 10 µM (inactive).

For `CCCCCCCCCCCCCCCC[N+](C)(C)Cc1ccccc1`, which IC50 is on record?
The IC50 was 2.53 µM.

How did the IC50 turn out when `CCN(CC)C(=O)/C(C#N)=C/c1cc(O)c(O)c([N+](=O)[O-])c1` was run?
Its IC50 is > 10 µM (inactive).

Which IC50 does the source give for `Cc1nc2ccc(CN(C)c3ccc(C(=O)N[C@@H](CCC(=O)O)C(=O)O)s3)cc2c(=O)[nH]1` here?
Its IC50 is 0.354 µM.

How did the IC50 turn out when `Cc1c2oc3c(C)ccc(C(=O)N[C@@H]4C(=O)N[C@H](C(C)C)C(=O)N5CCC[C@H]5C(=O)N(C)CC(=O)N(C)[C@@H](C(C)C)C(=O)O[C@@H]4C)c3nc-2c(C(=O)N[C@@H]2C(=O)N[C@H](C(C)C)C(=O)N3CCC[C@H]3C(=O)N(C)CC(=O)N(C)[C@@H](C(C)C)C(=O)O[C@@H]2C)c(N)c1=O` (I: T[dV]P[Sar][NMeV] / II: T[dV]P[Sar][NMeV]; ester I:1-I:C, II:1-II:C; linker I:N-II:N via Actinocin(9to1)) was run?
The IC50 was 0.001 µM.

With `CCOC(=O)C1=C[C@]2(CC)CCCN3CCc4c(n1c1ccccc41)[C@@H]32` as the compound, how does the IC50 read?
The IC50 was > 10 µM (inactive).

Which IC50 does the source give for `COc1ccc2cc3[n+](cc2c1OC)CCc1cc2c(cc1-3)OCO2` here?
The IC50 was 2.68 µM.

`CN1CCCC(CC2c3ccccc3Sc3ccccc32)C1` (centres undefined) was tested. Which IC50 did it give?
The IC50 was 8.68 µM (inactive).

Which IC50 does the source give for `O=C1c2c(O)ccc(O)c2C(=O)c2c(NCCNCCO)ccc(NCCNCCO)c21` here?
Its IC50 is 0.0044 µM.

How did the IC50 turn out when `S=c1nc[nH]c2nc[nH]c12` was run?
Its IC50 is 0.915 µM.

`CC(C)(C)C1CCC(CC2=C(O)c3ccccc3C(=O)C2=O)CC1` (centres undefined) was tested. Which IC50 did it give?
Its IC50 is 1.96 µM.

`C[C@@H]1C[C@@H]([C@H](O)CC2CC(=O)NC(=O)C2)C(=O)[C@@H](C)C1` was tested. Which IC50 did it give?
Its IC50 is 1.15 µM.

For `CN(C)c1ccc(C(=C2C=CC(=[N+](C)C)C=C2)c2ccccc2)cc1`, which IC50 is on record?
Its IC50 is 0.0605 µM.

For `Clc1ccc(Nc2nnc(Cc3ccncc3)c3ccccc23)cc1`, which IC50 is on record?
The IC50 was 0.111 µM.

`O=C(CCl)c1ccc(Cl)cc1Cl` was tested. Which IC50 did it give?
The IC50 was 2.49 µM.

How did the IC50 turn out when `CCOC(=O)[C@H](CCc1ccccc1)N[C@@H](C)C(=O)N1Cc2cc(OC)c(OC)cc2C[C@H]1C(=O)O` was run?
Its IC50 is > 10 µM (inactive).

With `Oc1ccc(/C=C/c2cc(O)cc(O)c2)cc1` as the compound, how does the IC50 read?
The IC50 was > 10 µM (inactive).

Which IC50 does the source give for `CCCSc1ccc2nc(NC(=O)OC)[nH]c2c1` here?
Its IC50 is 0.355 µM.

With `CC(C)Cn1cnc2c1c(=O)n(C)c(=O)n2C` as the compound, how does the IC50 read?
The IC50 was > 10 µM (inactive).

`O=c1[nH]c(=O)n([C@H]2C[C@H](O)[C@@H](CO)O2)cc1I` was tested. Which IC50 did it give?
The IC50 was 0.681 µM.

How did the IC50 turn out when `Oc1ccc2[nH]cc(CCCCN3CC=C(c4ccccc4)CC3)c2c1` was run?
Its IC50 is 4.04 µM.

`Cc1cccc(Nc2cc(Cl)nc(SCC(=O)O)n2)c1C` was tested. Which IC50 did it give?
Its IC50 is > 10 µM (inactive).

`O=C(O)c1ccc(-n2nc(-c3ccccc3O)nc2-c2ccccc2O)cc1` was tested. Which IC50 did it give?
Its IC50 is 2.09 µM.

How did the IC50 turn out when `COc1ccc(/C=N/NC(=O)c2ccncc2)cc1OC` was run?
Its IC50 is > 10 µM (inactive).

`CCCCC(CC)COC(=O)C(C#N)=C(c1ccccc1)c1ccccc1` (centres undefined) was tested. Which IC50 did it give?
Its IC50 is > 10 µM (inactive).

`Cc1c(C)c2c(c(C)c1O)CC[C@@](C)(CCC[C@H](C)CCC[C@H](C)CCCC(C)C)O2` was tested. Which IC50 did it give?
Its IC50 is > 10 µM (inactive).

How did the IC50 turn out when `OCCN1CCN(CCCN2c3ccccc3Sc3ccc(Cl)cc32)CC1` was run?
Its IC50 is > 10 µM (inactive).

How did the IC50 turn out when `CCCCN1CCCC1C(=O)Nc1c(C)cc(C)cc1C` (centres undefined) was run?
The IC50 was > 10 µM (inactive).

Which IC50 does the source give for `O=C(NC(=O)c1c(F)cccc1F)Nc1ccc(Cl)c(Oc2ncc(C(F)(F)F)cc2Cl)c1` here?
The IC50 was > 10 µM (inactive).

`O=C(c1ccc(F)cc1)C1CCN(CCn2c(=O)[nH]c3ccccc3c2=O)CC1` was tested. Which IC50 did it give?
The IC50 was > 10 µM (inactive).

Which IC50 does the source give for `COc1cc(S(N)(=O)=O)cc(C(=O)O)c1OC` here?
The IC50 was > 10 µM (inactive).

`CC(C)(C)CC(C)(C)c1ccc(O)cc1` was tested. Which IC50 did it give?
The IC50 was > 10 µM (inactive).
